# Entries after “also recorded” stand apart in the source; their conditions may differ.
# How the values were obtained:
# [1] = Long-term safety, open-label extension study; format: in vivo, human
# Procedure: Long-term safety was assessed in 813 patients, dosing intermittently for up to 1 year in an open-label extension study. […] Of these 813 patients, 421 patients were exposed to 50 mg or 100 mg for at least 6 months, and 364 patients were exposed to these doses for at least one year, all of whom treated at least two migraine attacks per month, on average. […] The most common adverse reaction resulting in discontinuation in the long-term safety study was nausea.
# Study A: safety = format: in vivo, human
# Procedure: Study A (verapamil and ketoconazole) comprised 3 treatment periods. […] Ubrogepant was administered under fasted conditions.
# [2] = Hepatic impairment study: adverse events; format: in vivo, human
# Description: Participants were queried regarding any AEs or SAEs at the time of each vital sign assessment, as well as at each visit through to the follow-up visit.
# Criteria for potential Hy's Law cases were as follows: AST or ALT≥3×ULN and Total Bilirubin≥2×ULN and Alkaline phosphatase<2×ULN.
# BCRP = target: T1, BCRP (Homo sapiens, UniProt Q9UNQ0); experiment: BCRP transporter substrate in vitro; format: in vitro ADME
# T1 sequence (Q9UNQ0 1-655): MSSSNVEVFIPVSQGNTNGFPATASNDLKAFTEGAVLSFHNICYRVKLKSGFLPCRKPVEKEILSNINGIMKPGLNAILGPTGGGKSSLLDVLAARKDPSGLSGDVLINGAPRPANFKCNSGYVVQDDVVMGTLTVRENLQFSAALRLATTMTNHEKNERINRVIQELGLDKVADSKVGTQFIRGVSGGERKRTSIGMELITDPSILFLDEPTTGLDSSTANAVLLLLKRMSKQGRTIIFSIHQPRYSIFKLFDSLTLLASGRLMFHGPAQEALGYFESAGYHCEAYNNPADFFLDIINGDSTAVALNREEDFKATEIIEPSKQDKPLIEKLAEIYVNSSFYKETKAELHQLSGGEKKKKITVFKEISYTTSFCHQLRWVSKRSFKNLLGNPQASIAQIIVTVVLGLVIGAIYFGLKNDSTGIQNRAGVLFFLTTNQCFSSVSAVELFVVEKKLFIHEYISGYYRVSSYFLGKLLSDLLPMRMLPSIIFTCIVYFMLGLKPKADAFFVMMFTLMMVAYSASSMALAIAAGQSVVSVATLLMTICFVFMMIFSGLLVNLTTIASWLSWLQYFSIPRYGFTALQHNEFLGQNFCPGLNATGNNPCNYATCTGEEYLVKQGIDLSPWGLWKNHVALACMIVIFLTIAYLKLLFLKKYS
# [3] = Adverse reactions in Studies 1 and 2; format: in vivo, human
# Description: In two randomized, double-blind, placebo-controlled, Ph. […] Of the ubrogepant-treated patients in these two studies, approximately 89% were female, 82% were white, 15% were Black, and 17% were of Hispanic or Latino ethnicity. The mean age at study entry was 41 years (range of 18-75 years).
# [4] = Total: participants who took any investigational product
# [5] = Total: participants who took any investigative product
# [6] = Treatment A: ubrogepant 100 mg single dose, fasted
# [7] = Treatment C: 600 mg rifampin co-administered with 100 mg ubrogepant on Day 14
# [8] = 100 mg single oral dose, all 28 participants
# [9] = 100 mg single oral dose, mild hepatic impairment
# [10] = 100 mg single oral dose, moderate hepatic impairment
# [11] = 100 mg single oral dose, normal hepatic function
# [12] = 100 mg single oral dose, severe hepatic impairment
# [13] = Studies 1 and 2, 50 mg (N = 954)
# [14] = Studies 1 and 2, 100 mg (N = 485)
smiles,measurement,setting,value
"C[C@@H]1[C@H](c2ccccc2)C[C@H](NC(=O)c2cnc3c(c2)C[C@@]2(C3)C(=O)Nc3ncccc32)C(=O)N1CC(F)(F)F [ubrogepant, (3′S)-N-((3S,5S,6R)-6-methyl-2-oxo-5-phenyl-1-(2,2,2-trifluoroethyl)piperidin-3-yl)-2′-oxo-1′,2′,5,7-etrahydrospiro[cyclopenta[b]pyridine-6,3′-pyrrolo[2,3-b]pyridine]-3-carboxamide]",participants with headache,"Study B: adverse events; Study B, whole trial",13.3%
same,Any AE,Study B: adverse events; [4],6 (20.0) n (%)
same,Dry Mouth,Study B: adverse events; [4],1 (3.3) n (%)
same,Flatulence,Study B: adverse events; [4],1 (3.3) n (%)
same,Gastrointestinal Disorders,Study B: adverse events; [4],4 (13.3) n (%)
same,Headache,Study B: adverse events; [4],4 (13.3) n (%)
same,Nausea,Study B: adverse events; [4],2 (6.7) n (%)
same,Nervous System Disorders,Study B: adverse events; [4],4 (13.3) n (%)
same,AEs leading to discontinuation,Study B: adverse events; [5],0 n (%)
same,Deaths,Study B: adverse events; [5],0 n (%)
same,SAEs,Study B: adverse events; [5],0 n (%)
same,TEAEs,Study B: adverse events; [5],6 (20.0) n (%)
same,Treatment related TEAEs,Study B: adverse events; [5],6 (20.0) n (%)
same,AEs leading to discontinuation,Study B: adverse events; [6],0 n (%)
same,Any AE,Study B: adverse events; [6],4 (13.3) n (%)
same,Deaths,Study B: adverse events; [6],0 n (%)
same,Dry Mouth,Study B: adverse events; [6],1 (3.3) n (%)
same,Flatulence,Study B: adverse events; [6],1 (3.3) n (%)
same,Gastrointestinal Disorders,Study B: adverse events; [6],2 (6.7) n (%)
same,Headache,Study B: adverse events; [6],2 (6.7) n (%)
same,Nausea,Study B: adverse events; [6],0 n (%)
same,Nervous System Disorders,Study B: adverse events; [6],2 (6.7) n (%)
same,SAEs,Study B: adverse events; [6],0 n (%)
same,TEAEs,Study B: adverse events; [6],4 (13.3) n (%)
same,Treatment related TEAEs,Study B: adverse events; [6],4 (13.3) n (%)
same,AEs leading to discontinuation,Study B: adverse events; [7],0 n (%)
same,Any AE,Study B: adverse events; [7],2 (7.1) n (%)
same,Deaths,Study B: adverse events; [7],0 n (%)
same,Dry Mouth,Study B: adverse events; [7],0 n (%)
same,Flatulence,Study B: adverse events; [7],0 n (%)
same,Gastrointestinal Disorders,Study B: adverse events; [7],2 (7.1) n (%)
same,Headache,Study B: adverse events; [7],1 (3.6) n (%)
same,Nausea,Study B: adverse events; [7],2 (7.1) n (%)
same,Nervous System Disorders,Study B: adverse events; [7],1 (3.6) n (%)
same,SAEs,Study B: adverse events; [7],0 n (%)
same,TEAEs,Study B: adverse events; [7],2 (7.1) n (%)
same,Treatment related TEAEs,Study B: adverse events; [7],2 (7.1) n (%)
same,safety and tolerability,Study B: adverse events; single oral dose coadministered with multiple doses of rifampin,safe and generally well tolerated; also recorded: safe and generally well-tolerated
same,patients withdrawn because of an adverse reaction,"[1]; intermittent dosing for up to 1 year, 50 mg or 100 mg",2.5%
same,most common adverse reaction resulting in discontinuation,[1]; long-term safety study,nausea
same,elevations in serum transaminases or bilirubin,Study A: safety; Study A,no participants experienced elevations in serum transaminases or bilirubin greater than or equal to 2-fold ULN
same,total TEAEs reported,"Study A: safety; Study A, all treatment periods",39 TEAEs
same,safety and tolerability,"Study A: safety; single oral dose coadministered with multiple doses of verapamil or ketoconazole, healthy adults",safe and generally well tolerated; also recorded: safe and generally well-tolerated
same,"changes in laboratory parameters, vital signs, or ECG measurements",[2]; 100 mg single oral dose,"no clinically relevant changes in laboratory parameters, vital signs, or ECG measurements"
same,"participants with TEAEs, overall",[2]; [8],17.9%
same,"participants with headache, overall",[2]; [8],2 participants
same,AE leading to study discontinuation,[2]; [9],0 n (%)
same,Any SAE,[2]; [9],0 n (%)
same,Any TEAE,[2]; [9],3 (37.5) n (%)
same,Any treatment-related TEAE,[2]; [9],2 (25.0) n (%)
same,Deaths,[2]; [9],0 n (%)
same,Diarrhoea,[2]; [9],1 (12.5) n (%)
same,Dizziness,[2]; [9],0 n (%)
same,Dyspepsia,[2]; [9],1 (12.5) n (%)
same,Gastrointestinal Disorders,[2]; [9],2 (25.0) n (%)
same,Headache,[2]; [9],1 (12.5) n (%)
same,Nervous System Disorders,[2]; [9],1 (12.5) n (%)
same,AE leading to study discontinuation,[2]; [10],0 n (%)
same,Any SAE,[2]; [10],0 n (%)
same,Any TEAE,[2]; [10],2 (25.0) n (%)
same,Any treatment-related TEAE,[2]; [10],2 (25.0) n (%)
same,Deaths,[2]; [10],0 n (%)
same,Diarrhoea,[2]; [10],0 n (%)
same,Dizziness,[2]; [10],1 (12.5) n (%)
same,Dyspepsia,[2]; [10],0 n (%)
same,Gastrointestinal Disorders,[2]; [10],0 n (%)
same,Headache,[2]; [10],1 (12.5) n (%)
same,Nervous System Disorders,[2]; [10],2 (25.0) n (%)
same,AE leading to study discontinuation,[2]; [11],0 n (%)
same,Any SAE,[2]; [11],0 n (%)
same,Any TEAE,[2]; [11],0 n (%)
same,Any treatment-related TEAE,[2]; [11],0 n (%)
same,Deaths,[2]; [11],0 n (%)
same,Diarrhoea,[2]; [11],0 n (%)
same,Dizziness,[2]; [11],0 n (%)
same,Dyspepsia,[2]; [11],0 n (%)
same,Gastrointestinal Disorders,[2]; [11],0 n (%)
same,Headache,[2]; [11],0 n (%)
same,Nervous System Disorders,[2]; [11],0 n (%)
same,AE leading to study discontinuation,[2]; [12],0 n (%)
same,Any SAE,[2]; [12],0 n (%)
same,Any TEAE,[2]; [12],0 n (%)
same,Any treatment-related TEAE,[2]; [12],0 n (%)
same,Deaths,[2]; [12],0 n (%)
same,Diarrhoea,[2]; [12],0 n (%)
same,Dizziness,[2]; [12],0 n (%)
same,Dyspepsia,[2]; [12],0 n (%)
same,Gastrointestinal Disorders,[2]; [12],0 n (%)
same,Headache,[2]; [12],0 n (%)
same,Nervous System Disorders,[2]; [12],0 n (%)
same,tolerability,[2]; healthy participants and participants with mild to severe hepatic impairment,well-tolerated
same,substrate of BCRP transporter,BCRP,substrate
same,Dry Mouth,[3]; [13],<1%
same,Nausea,[3]; [13],2%
same,Somnolence (includes sedation and fatigue),[3]; [13],2%
same,Dry Mouth,[3]; [14],2%
same,Nausea,[3]; [14],4%
same,Somnolence (includes sedation and fatigue),[3]; [14],3%
